Measured values taken from US20260165968A1, “SUSTAINED-RELEASE PLGA MICROSPHERE CONTAINING GS-441524, AND METHOD FOR PRODUCING SAME” (THE INDUSTRY & ACADEMIC COOPERATION IN CHUNGNAM NATIONAL …, priority 2022, published 2026).
Read-outs that look alike come from different tables or passages of the source.

Tests used:
[1] = in humans; cited from earlier work
[2] = Pharmacokinetic evaluation after subcutaneous injection into rats; type: in vivo
Procedure: The pharmacokinetic evaluation of the GS-441524-containing PLGA microspheres of Example F3 according to the disclosure was carried out. Rats as test animals were randomly divided into test and control groups, with 5 animals in each group, and raised under the same conditions while predetermined amounts of solid food and water were supplied for 7 days. The rats were fasted for 12 hours before testing, and then used for testing.
The test group was subcutaneously administered GS-441524 at a dose corresponding to 28 mg/kg by using the PLGA microspheres of Example F3 of the disclosure, and the control group was subcutaneously administered 28 mg/kg GS-441524 alone. Approximately 300 μL of blood was collected by retro-orbital bleeding 1, 2, 4, 8, 12, 24, 48, 72, 96, 120, and 144 hours after the subcutaneous injection to the rats. Each of the obtained samples was centrifuged at 15,000 rpm for 5 minutes to separate the plasma, and then stored at −70° C. before analysis.
Plasma sample pre-treatment was performed using a deproteination method. After 100 μL of a plasma sample was taken, 200 μL of methanol (the internal standard substance 10 ng/MI verapamil) was added thereto, followed by mixing for 10 minutes and then extraction. The extract was centrifuged at 17,000 rpm for 10 minutes, and then the supernatant was collected and analyzed using LC-MS/MS to quantify GS-441524 in the blood.

[3] = rat, plasma, sc, 28 mg/kg GS-441524

- Cl ([2]; 28 mg/kg GS-441524): 17.32 ± 9.32 mL/min/kg
- Vz ([2]; 28 mg/kg GS-441524): 81.261 ± 84.077 L/kg
- Cmax [2, 3]: 8170 ± 4080 ng/mL
- half-life [2, 3]: 61.5 ± 66.2 h
- AUC(0-t) ([2]; rat, plasma, sc, 28 mg/kg GS-441524, read-out: AUC0→144): 31600 ± 14300 ng·h/mL
SMILES: N#C[C@@]1(c2ccc3c(N)ncnn23)O[C@H](CO)[C@@H](O)[C@H]1O [GS-441524, (2R,3R,4S,5R)-2-(4-aminopyrrolo[2,1-f][1,2,4]triazin-7-yl)-3,4-dihydroxy-5-(hydroxymethyl) oxolane-2-carbonitrile]
- half-life [1]: about 24 hours
